For data set [1], the system named is human synovial cells derived from three patients with osteoarthritis (HFLS-OA). Put plainly: Hyaluronic acid synthesis by synovial cells ([3H] glucosamine incorporation, HPLC fractionation by molecular weight). The data set is classed as cell-based. As to conditions: 48 hours, SB-807 HQ column.
A further data set deals with HAS2 mRNA. Put plainly: Relative mRNA level (real-time PCR, ΔΔCt) in synovial cells. The data set is classed as cell-based, human. To be noted: HFLS-OA, 0.1% (w/v), 48 hours, vs control. On the procedure: (§1) Compound 1 or sodium hyaluronate (HA) (ARTZ Dispo (registered trademark) (manufactured by Seikagaku Corporation)) was mixed in a solution containing a phosphate buffer solution and an α-MEM concentrated medium. Further, each reagent was added and mixed in the resulting solution so that the final concentrations were as follows: 10% (v/v) fetal bovine serum (hereinafter FBS), 10 ng/mL recombinant human IL-1β/IL-1F2 (hereinafter IL-1β), and 1% (w/v) penicillin/streptomycin. As a result, the following three solutions were prepared as test substances.
(§2) Human synovial cells derived from a patient with osteoarthritis (HFLS-OA, CELL APPLICATIONS, INC.) were subcultured and grown in a 175-cm^2 flask. In the cell culture, Basal medium (containing 10% (v/v) Growth supplement and 1% (w/v) penicillin/streptomycin) (manufactured by Cell Applications, Inc.) was used. Thereafter, the cells were seeded in a 6-well plate at 3.0×10^5 cells/2 mL/well and cultured for about 24 hours until confluence was reached. In the cell culture, α-MEM medium (containing 10% (v/v) FBS and 1% (w/v) penicillin/streptomycin) was used. […]
(§3) The cDNA sample was subjected to real-time PCR using Premix ExTaq (Perfect Real Time) (Takara Bio, Inc.), the Ct values of target genes (HAS1, HAS2, HAS3, HYAL1, HYAL2, and HYAL3) and GAPDH were measured, and relative mRNA levels were calculated by the ΔΔCt method.

Another data set has as its system HYAL2 mRNA. Described as above. The data set is classed as cell-based, human. To be noted: HFLS-OA, 0.1% (w/v), 48 hours, vs control. On the procedure:
as §1, §2, §3

Data set [2] has as its system synovial cells derived from patients with osteoarthritis (HFLS-OA).
Procedure: The cells derived from three patients with each disease (3 lots) were separately evaluated and the number of cases was set to 3.
After the culture supernatant was collected, the adhered cells were detached from each well. Thereafter, the cell count was measured using a trypan blue solution and a hemacytometer.

In the case of “Aminoethanol-diclofenac-introduced sodium hyaluronate [compound 1]”, in data set [1] (Example 5, 0.01% (w/v)), the “molecular weight peak of hyaluronic acid produced” value was ~2,400,000. In addition, the “molecular weight of hyaluronic acid produced” value in data set [1] (Example 5, 0.1% (w/v)) is listed as “more than 2,400,000”. In addition, in the data set on HAS2 mRNA, the “expression of HAS2 mRNA (relative mRNA level)” value is “significantly promotes”. The “expression of HYAL2 mRNA (relative mRNA level)” value in the data set with HYAL2 mRNA is “significantly suppresses”. Also, the “cell count after cell culture” value in data set [2] is listed as “no significant increase or decrease”.

These data come from US20210052633A1, “HYALURONIC ACID SYNTHESIS PROMOTER, METHOD FOR PROMOTING HYALURONIC ACID SYNTHESIS, AND CELL EVALUATION METHOD” (SEIKAGAKU CORPORATION, priority 2018, published 2021).
